Assay results published in article PMC12990037, “Discovery of Two Structurally Distinct Classes of Inhibitors Targeting the Nuclease MUS81 and Enhancing Efficacy of Chemotherapy in Cancer Cells” (Journal of Medicinal Chemistry, 2026).

Legend:
Format in all cases: cell-based
CAL51 MUS81^–/– cells = experiment: Cell proliferation assay (CyQUANT), combination with cisplatin
Method: CAL51 WT, CAL51 MUS81^–/–, U2OS, and HEK293 cells were seeded in a 96-well plate and treated with the respective concentration of selected inhibitors. After incubation for 4–5 days, cells were harvested while the untreated control was still subconfluent. The plate was then incubated at −80 °C to achieve cell lysis. Cell proliferation was assessed using the CyQUANT Cell Proliferation Assay kit (Thermo Fisher Scientific) according to manufacturer’s instructions. […] was measured using a plate reader (Infinite F500, Tecan Austria GmbH).

U2OS, HEK293, and CAL51 = experiment: as above; conditions: cotreatment with cisplatin, 5 days
Method: 7 MUS81 inhibitors synergize with cisplatin to reduce cancer cell viability. (A,B) U2OS cells were treated with DMSO, MU262, or MU876 at the indicated concentrations in combination with a range of cisplatin (0–5 μM) for 96–120 h. Cell viability was assessed by the Cy-Quant assay. The survival was normalized to the DMSO-treated control. Graphs were generated in Graphpad Prism using the nonlinear regression fitting model. n ≥ 3, error bars represent s.d. (C) CAL51 WT cells were treated with DMSO, MU262, or MU876 at the indicated concentrations at each passage over 2 weeks. Cisplatin (12 μM) was added for the last 24 h before harvest. DNA damage was assessed by quantifying γH2AX foci using fluorescence microscopy and CellProfiller software. Data were visualized plotted in R software. Red markers represent the median of γH2AX foci number per nucleus; blue markers represent the percentage of cells with ≥20 γH2AX foci per nucleus. n = 3, error bars represent s.d.; ****p <0.0001 (unpaired, two-tailed t-test). TEXT PRINTED IN THE PICTURE: (C) D: γH2AX foci: 2.4 (DMSO); γH2AX foci: 59.6 (Cisplatin) | (C) MU262: γH2AX foci: 2.3 (1 μM; DMSO); γH2AX foci: 3 (2 μM; DMSO); γH2AX foci: 55.4 (1 μM; Cisplatin); γH2AX foci: 43.2 (2 μM; Cisplatin) | (C) MU876: γH2AX foci: 2.8 (0.25 μM; DMSO); γH2AX foci: 0.9 (0.5 μM; DMSO); γH2AX foci: 48.2 (0.25 μM; Cisplatin); γH2AX foci: 42.6 (0.5 μM; Cisplatin) DOUBTS OF THE COPYIST ABOUT THIS PICTURE: Panel C: the numbers in the blue markers have no measure or unit of their own printed in the picture; the axis title 'γH2AX foci' is given as the measure, but the numbers may stand for another quantity. / Panel C: 'D' is a control column with no concentration; it may not count as a substance. / Panel C: small white print on blue markers; 59.6, 55.4, 48.2, 43.2, 42.6, 2.8 and 0.9 are best readings (3, 5, 6, 8 and 9 are hard to tell apart).
CAL51 WT, CAL51 MUS81^–/–, U2OS, and HEK293 cells were seeded in a 96-well plate and treated with the respective concentration of selected inhibitors. […]

U2OS cells [1] = experiment: γH2AX foci immunofluorescence, 72 h treatment
Method: 6 MUS81 inhibition induces persistent DNA damage leading to reduced cell survival. (A) U2OS cells were treated with DMSO, cisplatin as a positive control, control or MUS81-targeting siRNA, MU262, MU876, and their negative control counterparts at the indicated concentrations for 72 h. Representative images show staining of a DNA damage marker γH2AX in green with counterstaining of DAPI in blue. The concentration of all inhibitors shown in (A) is 2.5 μM. (B) DNA damage was assessed by quantifying γH2AX foci per nucleus from (A) using CellProfiller software. The graph represents percentage (%) of cells with ≥20 γH2AX foci per nucleus across different concentrations of inhibitors. n = 3; error bars represent s.d. (C) Indicated number of U2OS cells was transfected with a nontargeting siRNA (siCon) or MUS81-targeting siRNA (siMUS81) seeded for a CFA. […] (D) Quantification of (C), error bars represent s.d.; ****p <0.0001 (unpaired, two-tailed t-test). […] (F) Quantification of (E) using a nonlinear regression fitting model. n = 3. […] (H) Quantification of (G) using a nonlinear regression fitting model. n = 3.
(§1) U2OS, CAL51 WT, and CAL51 MUS81^–/– cells (10,000) were seeded in a 96-well plate 24 h before the treatment. […] The γH2AX foci were detected and quantified using CellProfiler (Broad Institute of MIT and Harvard). The analyzed data were plotted in RStudio software using R programming language.

U2OS cells [2] = experiment: EdU/PI cell cycle assay; conditions: 72 h; for cell cycle progression: 0.5 μM; for cell cycle profile: 1 μM
Method: Given these promising findings, we further investigated the specificity of MU262 and MU876 and potential short-term cytotoxicity. To mirror the treatment duration used in BIR and HR assays, U2OS cells were exposed to the inhibitors or siRNA for 3 days.
U2OS WT cells (300,000) were seeded in a 6-well plate; a subset of them was treated with either control siRNA or siRNA targeting MUS81. After adhesion, cells were treated with the respective inhibitors for 72 h during which CPT ([…], Sigma-Aldrich) was added for the last 16 h and 10 μM EdU (Sigma-Aldrich) was added for the last 1 h. Cells were then harvested and stained by using the Click-iT EdU Alexa Fluor 647 Flow Cytometry Assay Kit (Thermo Fisher Scientific). Finally, cells were resuspended in 1xPBS containing 5 μg/mL of propidium iodide (PI) and analyzed using a BD FACSVerse flow cytometer (Becton Dickinson) and FlowJo software (BD Life Sciences). At least 20,000 cells were used for each measurement, and experiments were performed in duplicates.

CAL51 WT cells = experiment: γH2AX foci after cisplatin treatment; conditions: compared to the DMSO controls
Method: 7 MUS81 inhibitors synergize with cisplatin to reduce cancer cell viability. (A,B) U2OS cells were treated with DMSO, MU262, or MU876 at the indicated concentrations in combination with a range of cisplatin (0–5 μM) for 96–120 h. Cell viability was assessed by the Cy-Quant assay. The survival was normalized to the DMSO-treated control. Graphs were generated in Graphpad Prism using the nonlinear regression fitting model. n ≥ 3, error bars represent s.d. (C) CAL51 WT cells were treated with DMSO, MU262, or MU876 at the indicated concentrations at each passage over 2 weeks. Cisplatin (12 μM) was added for the last 24 h before harvest. DNA damage was assessed by quantifying γH2AX foci using fluorescence microscopy and CellProfiller software. Data were visualized plotted in R software. Red markers represent the median of γH2AX foci number per nucleus; blue markers represent the percentage of cells with ≥20 γH2AX foci per nucleus. n = 3, error bars represent s.d.; ****p <0.0001 (unpaired, two-tailed t-test). […]
as §1

For `CCc1nn2c(O)c(-c3nc4ccccc4[nH]3)nnc2c1-c1ccc(F)cc1` [Compound 18, 3-(1H-Benzo[d]imidazole-2-yl)-7-ethyl-8-(4-fluorophenyl)pyrazolo[5,1-c][1,2,4]triazin-4-ol], the sensitization to cisplatin (CAL51 MUS81^–/– cells) was “no additional sensitization”, the “enhancement of cisplatin-induced decrease of viability” value (U2OS, HEK293, and CAL51) was “further enhanced by cotreatment with both MUS81 inhibitors in a dose-dependent manner” and the “γH2AX (DNA damage) foci” value (U2OS cells [1]) was “significantly increased the number of DNA damage foci in a concentration-dependent manner”. For the same molecule, the cell cycle progression (U2OS cells [2]) was “neither MU262 and MU876 affected the cell cycle progression”, the cell cycle profile (U2OS cells [2]) was “mild increase in the S phase” and the “γH2AX foci following cisplatin treatment” value (CAL51 WT cells) was “significantly reduced the number of γH2AX foci in a concentration-dependent manner”.

`Cc1cc(=O)[nH]c(-n2nc(-c3ccccc3)cc2NC(=O)c2cc(-c3ccccc3)on2)n1` [Compound 32, N-(1-(4-Methyl-6-oxo-1,6-dihydropyrimidin-2-yl)-3-phenyl-1H-pyrazol-5-yl)-5-phenylisoxazole-3-carboxamide] was tested, and the sensitization to cisplatin (CAL51 MUS81^–/– cells) was “no additional sensitization”, the “enhancement of cisplatin-induced decrease of viability” value (U2OS, HEK293, and CAL51) was “further enhanced by cotreatment with both MUS81 inhibitors in a dose-dependent manner” and the “γH2AX (DNA damage) foci” value (U2OS cells [1]) was “significantly increased the number of DNA damage foci in a concentration-dependent manner”. For the same molecule, the cell cycle progression (U2OS cells [2]) was “neither MU262 and MU876 affected the cell cycle progression”, the cell cycle profile (U2OS cells [2]) was “mild increase in the S phase” and the “γH2AX foci following cisplatin treatment” value (CAL51 WT cells) was “significantly reduced the number of γH2AX foci in a concentration-dependent manner”.
